12 molecules from US11590116B2 (THERAVANCE BIOPHARMA R&D IP, LLC, priority 2019, dated 2023) can be followed below.

Experiment [1] relates to TGF-β-stimulated SMAD3 phosphorylation in BEAS-2B cells. As to the kind of experiment: Cellular ALK5 potency assay, inhibition of TGF-β stimulated pSMAD3 formation in BEAS-2B cells. To be noted: Homo sapiens; inhibition of TGF-β stimulated pSMAD3 formation, BEAS-2B cells; read-out: BEAS2B pIC50 (converted). The experiment is classed as cell-based. As to the method:
The potency of compounds of the present disclosure for inhibition of TGF-β-stimulated SMAD3 phosphorylation was measured in BEAS-2B cells, a human lung epithelial cell line. TGF-β signals through activin receptor-like kinase 5 (ALK5) immediately prior to SMAD3 phosphorylation.
BEAS-2B cells were grown using 50% DMEM (Life Technologies) and 50% F-12 (Life Technologies) media, supplemented with 10% Fetal Bovine Serum (ATCC), 25 mM HEPES (Life Technologies), and 1× Pen-Strep (Life Technologies). Cells were cultured in a humidified incubator set at 37° C., 5% CO2, and trypsonized using 0.25% Trypsin with 0.5% polyvinylpyrrolidone (PVP).
For the assay, BEAS-2B cells were seeded at 7,500 cells/well (25 μL/well) in a 384-well plate and cultured overnight. Before dosing, growth media was aspirated and the wells were rinsed with HBSS Buffer (HBSS with Calcium and Magnesium, Life Technologies) supplemented with 25 mM HEPES (Life Technologies) and 1% Bovine Serum Albumin (Roche). Compounds were serially diluted in DMSO, then further diluted with supplemented HBSS Buffer (50 μL/well) to create a compound plate 3× of the final assay concentration, at 0.3% DMSO. The diluted compounds were then added to the cells (8 μL/well) and incubated at 37° C., 5% CO2 for 1 hour. After the compound incubation, TGF-β (R&D Systems) reconstituted in supplemented HBSS Buffer was added to the cells ([…], final concentration 10 ng/mL) and incubated for a further 30 minutes, after which the cells were immediately lysed with AlphaLISA lysis buffer (PerkinElmer). AlphaLISA Acceptor and Detector beads (PerkinElmer) were added 2 hours apart, then incubated overnight to be read the next day. The potency of the compound was determined through analysis of dose-dependent quantified changes in pSMAD3 signal from baseline (non-compound treated TGF-β stimulated cells). Data are expressed as pIC50 (negative decadic logarithm IC50) values.

Experiment [2] concerns the target T1, recombinant human ALK5 (TGF-βR1) protein (Homo sapiens, UniProt P36897).
T1 construct: purchased Life Technologies PR9075A
T1 sequence (P36897 34-503): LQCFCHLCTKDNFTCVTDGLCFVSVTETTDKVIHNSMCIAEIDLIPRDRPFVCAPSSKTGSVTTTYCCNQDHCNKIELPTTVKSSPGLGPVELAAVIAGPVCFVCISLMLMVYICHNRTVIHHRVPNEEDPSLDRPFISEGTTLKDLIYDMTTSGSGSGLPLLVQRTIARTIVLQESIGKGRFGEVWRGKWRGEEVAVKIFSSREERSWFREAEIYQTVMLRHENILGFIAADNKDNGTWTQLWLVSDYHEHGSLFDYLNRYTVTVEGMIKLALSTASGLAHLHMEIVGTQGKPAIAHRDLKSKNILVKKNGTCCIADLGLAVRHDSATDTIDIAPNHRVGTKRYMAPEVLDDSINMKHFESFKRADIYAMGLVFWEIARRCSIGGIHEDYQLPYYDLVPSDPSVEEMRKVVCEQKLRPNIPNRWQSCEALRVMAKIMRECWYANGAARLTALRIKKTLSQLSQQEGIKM
The experiment is described as follows: Biochemical ALK5 (TGF-βR1) assay to measure pKi (LANCE Ultra ULight kinase assay). The settings on record: apparent pKi from pIC50 by Cheng-Prusoff, read-out: ALK5 pKi (converted). As to the method:
The assays were performed in a 384-well plate (24 columns×16 wells/rows). An Echo® 550 Liquid Handler (Labcyte) was used to prepare various intermediate concentrations of compounds of the present disclosure in 100% DMSO. From the intermediate concentrations, a range of concentrations (from 10 μM to 25 pM corresponding to volumes up to 105 nL) were prepared and ejected into a final assay plate to be used to create individual dose response curves for each of the subject compounds. To a separate column within the assay plate, 105 nL of DMSO in each well was used to establish a maximum assay signal.
With a multidrop dispenser, 8 μL of enzyme mixture (1.25× final) was added to each well. […] The plate was then sealed with an adhesive seal and allowed to equilibrate for 60 minutes at room temperature.
Next, 2 μL of 125 μM ATP (5× final, 125 μM ATP prepared in assay buffer with 2 mM DTT) was added to the incubated mixtures, covered with a MicroClime® Environmental Lid (Product No. LLS-0310, Labcyte) and immediately transferred to 37° C. The reactions were allowed to proceed at 37° C. for 60 minutes before terminating with the addition of 10 μL of detection antibody (LANCE® (lanthanide chelate excite) Ultra Europium-anti-phospo-DNA Topoisomerase 2-alpha (Thr1342)) in detection mixture (12 mM EDTA, 4 nM detection antibody prepared in detection buffer (50 mM Tris-HCl, 150 mM NaCl, 0.5% BSA (Fraction V), pH 7.0)) at room temperature. The plate was then read on a Perkin Elmer EnVision Plate Reader using europium specific reader settings with excitation and emission wavelengths set to 320 or 340 nm and 665 nm, respectively.
For dose-response analyses, percent inhibition versus compound concentrations were plotted, and pIC50 values were determined from a 4-parameter robust fit model with GraphPad Prism V5 Software (GraphPad Software, Inc., La Jolla, Calif.). This model obtains pIC50 values by fitting the sigmoidal dose-response (variable slope) equation to the data. Results were expressed as pIC50 (negative logarithm of IC50) and subsequently converted to pKi (negative logarithm of dissociate constant, K) using the Cheng-Prusoff equation. The higher the value of pKi (lower value of Ki), the greater the inhibition of ALK5 activity.

Some results are limits rather than exact numbers.

On to `Cc1cccc(-c2n[nH]cc2-c2ccc3ncc(N4CCCNCC4)cc3c2)n1` [Compound 580, 3-(1,4-diazepan-1-yl)-6-[3-(6-methyl-2-pyridyl)-1H-pyrazol-4-yl]quinoline], for which the IC50 in experiment [1] was 25.1 to 158 nM. In addition, the Ki in experiment [2] is 0.0398 to 0.316 nM.

With `Cc1cccc(-c2n[nH]cc2-c2ccc3ncc(N4C[C@@H]5C[C@H]4CN5)cc3n2)n1` [Compound 220, 7-[(1S,4S)-2,5-diazabicyclo[2.2.1]heptan-2-yl]-2-[3-(6-methyl-2-pyridyl)-1H-pyrazol-4-yl]-1,5-naphthyridine], the IC50 in experiment [1] is 25.1 to 158 nM. The Ki in experiment [2] is 0.398 to 3.16 nM.

For `Cc1cccc(-c2n[nH]cc2-c2ccc3ncc(NCCN4C[C@@H](C)N[C@@H](C)C4)cc3n2)n1` [Compound 516, 6-[3-(6-methyl-2-pyridyl)-1H-pyrazol-4-yl]-N-[2-[rac-(3R,5S)-3,5-dimethylpiperazin-1-yl]ethyl]-1,5-naphthyridin-3-amine], in experiment [1], the IC50 is 25.1 to 158 nM. Also, the Ki in experiment [2] is 0.0398 to 0.316 nM.

With `Cc1cccc(-c2[nH]cnc2-c2ccc3ncc(C(=O)OCCCC4CCNCC4)cc3c2)n1` [Compound 1132, 3-(4-piperidyl)propyl 6-[5-(6-methyl-2-pyridyl)-1H-imidazol-4-yl]quinoline-3-carboxylate], in experiment [1], the IC50 was 25.1 to 158 nM. Moreover, the Ki in experiment [2] is 0.0398 to 0.316 nM.

Consider `Cc1cccc(-c2[nH]cnc2-c2ccc3ncc(-c4csc(C(=O)O[C@@H]5CCNC5)n4)cc3c2)n1` [Compound 1104, [(3R)-pyrrolidin-3-yl] 4-[6-[5-(6-methyl-2-pyridyl)-1H-imidazol-4-yl]-3-quinolyl]thiazole-2-carboxylate], for which the IC50 in experiment [1] is 25.1 to 158 nM. Also, the Ki in experiment [2] is 0.0398 to 0.316 nM.

With `Cc1cccc(-c2[nH]cnc2-c2ccc3ncc(C(=O)OCCC4CCNC4)cc3c2)n1` (stereo not drawn) [Compound 1153, 2-pyrrolidin-3-ylethyl 6-[5-(6-methyl-2-pyridyl)-1H-imidazol-4-yl]quinoline-3-carboxylate], the IC50 in experiment [1] was 25.1 to 158 nM. For the same molecule, the Ki in experiment [2] is 0.0398 to 0.316 nM.

Take `COC(=O)CNc1cnc2ccc(-c3nc[nH]c3-c3cccc(C)n3)cc2c1` [Compound 1229, methyl 2-[[6-[5-(6-methyl-2-pyridyl)-1H-imidazol-4-yl]-3-quinolyl]amino]acetate]: the IC50 in experiment [1] was 25.1 to 158 nM. For the same molecule, the Ki in experiment [2] was 0.0398 to 0.316 nM.

Turning to `Cc1cccc(-c2n[nH]cc2-c2ccc3ncc(-c4cn5c(n4)CN(CCN)CC5)cc3n2)n1` [Compound 427, 2-[2-[6-[3-(6-methyl-2-pyridyl)-1H-pyrazol-4-yl]-1,5-naphthyridin-3-yl]-6,8-dihydro-5H-imidazo[1,2-a]pyrazin-7-yl]ethanamine], in experiment [1], the IC50 is 200 to 1260 nM. Moreover, in experiment [2], the Ki is 0.0398 to 0.316 nM.

`Cc1cccc(-c2n[nH]cc2-c2ccc3ncc(-c4ccc(C5CCCN(C(C)C)C5)cc4)cc3n2)n1` (stereo not drawn) [Compound 265, 7-[4-(1-isopropyl-3-piperidyl)phenyl]-2-[3-(6-methyl-2-pyridyl)-1H-pyrazol-4-yl]-1,5-naphthyridine]: in experiment [1], the IC50 is 200 to 1260 nM. Further, the Ki in experiment [2] was 0.0398 to 0.316 nM.

On to `Cc1cccc(-c2[nH]cnc2-c2ccc3ncc(-c4ccc(C(=O)O)cn4)cc3c2)n1` [Compound 1091, 6-[6-[5-(6-methyl-2-pyridyl)-1H-imidazol-4-yl]-3-quinolyl]pyridine-3-carboxylic acid], for which, in experiment [1], the IC50 was 1580 to 10000 nM. In experiment [2], the Ki is below 0.0316 nM.

Regarding `Cc1cccc(-c2n[nH]cc2-c2ccc3ncc(-c4cncs4)cc3n2)n1` [Compound 190, 5-[6-[3-(6-methyl-2-pyridyl)-1H-pyrazol-4-yl]-1,5-naphthyridin-3-yl]thiazole], the IC50 in experiment [1] was below 20 nM. Further, the Ki in experiment [2] was below 0.0316 nM.

`Cc1cccc(-c2[nH]cnc2-c2ccc3ncc(-c4csc(C(=O)OC[C@H]5CCCNC5)c4)cc3c2)n1` [Compound 1253, [(3S)-3-piperidyl]methyl 4-[6-[5-(6-methyl-2-pyridyl)-1H-imidazol-4-yl]-3-quinolyl]thiophene-2-carboxylate]: in experiment [1], the IC50 is 25.1 to 158 nM. Also, in experiment [2], the Ki was below 0.0316 nM.
